Test results reported in patent US20060160086A1, “Method for continuous detection of an analyte, trifunctional detecting reagent used and detecting device” (Commissariat A L'Energie Atomique, priority 2002, published 2006).
Ends that are not written are not given here. * marks the point of attachment. Biotin = O=C1N[C@H]2[C@H](CS[C@H]2CCCCC(=O)*)N1

Key:
neutravidin = target: T1, neutravidin (Gallus gallus, UniProt P02701); test: Attachment of the fluorescein-labeled tripod Y to neutravidin-coated microtitration plates (fluorescence); assay type: binding; details: neutravidin-coated microplate, 3 hours at ambient temperature, excitation 485 nm / emission 530 nm
T1 construct: purchased Pierce 31 000
T1 sequence (P02701 25-152): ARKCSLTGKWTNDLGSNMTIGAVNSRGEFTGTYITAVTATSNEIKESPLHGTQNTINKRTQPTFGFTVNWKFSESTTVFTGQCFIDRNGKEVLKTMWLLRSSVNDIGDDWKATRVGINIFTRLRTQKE
Description: 100 μl of a solution of neutravidin (sold under the reference 31 000 by the company Pierce) at 5 μg/ml in a 0.1 M potassium phosphate buffer, pH 7.4 are deposited into the wells of black microplates sold under the name High Bind Matrix by the company VWR (reference 80120696). After 16 hours at ambient temperature, the plates are washed with washing buffer and then saturated by depositing 300 μl/well of saturation buffer for 16 hours at ambient temperature. The plates are stored with the same buffer (300 μl/well) at 4° C.
A dilution range for the tripod Y (labeled with fluorescein) synthesized above in example 4, in 0.1 M potassium phosphate buffer, pH 7.4, is prepared by producing a first point of the range at a concentration of 0.5 μM, and then 4 successive ⅓ dilutions (i.e. 0.167 μM; 0.055 μM; 0.0185 μM and 6.2×10^−3 μM). […] The plate is read with an analyst AD system fluorimeter (LJL Biosystem) for reading microplates, at an excitation wavelength of 485 nm and at an emission wavelength of 530 nm, which are the excitation and emission wavelengths corresponding to fluorescein.
The curves obtained with neutravidin (black square) and without neutravidin (black triangle: control) are represented in the attached FIG. 2, in which the fluorescence (in arbitrary units) is expressed as a function of the concentration of tripod Y in accordance with the invention (μM).

monoclonal antibody SP31 = details: peptide analog of substance P comprising an alanine at position 10 [Ala^10]; cited from earlier work

With “tripod: substance P analog (SEQ ID No. 2) labeled with fluorescein; biotin for attachment to neutravidin support (GATCTGCTGGCATCT; fluorescein label and biotin, positions not given here)” the “concentration of tripod up to which fluorescence increases proportionally, then plateau (saturation of the neutravidin binding sites)” value (neutravidin) was 0.17 µM.
In the case of “KSSK(Biotin)RPAPQQFFGAM-NH2 [substance P analog]”, the “cross reactivity with substance P for the monoclonal antibody SP31” value (monoclonal antibody SP31) is listed as 13%.
